These results are taken from EP0781268B1, “DERIVATIVES OF 2-AMINO-1,2,3,4-TETRAHYDRONAPHTHALENE ACTIVE ON THE CARDIOVASCULAR SYSTEM” (ZAMBON GROUP S.p.A., priority 1994, dated 1996).

Where a name gives a salt, the structure may show the parent alone.

The target of one data set is T1, D1 receptor (Rattus norvegicus, UniProt P18901).
T1 construct: from tissue; host or cells: rat brain striatum membranes
Nature of the data set: biochemical. Format: binding. As to conditions: rat striated membranes; 0.2 nM [3H]-SCH23390; 37°C for 20 minutes; read-out: Affinity [K1 (nM)] D1 [^3H]-SCH23390.

A further data set deals with D1-like (RSA). The experiment in a line: D1-like activity in the Rabbit Splenic Artery (RSA) test, isolated arterial rings. As to conditions: agonist activity; arterial preparations contracted with U46619 0.1 µM; compounds cumulatively administered. How it is done:
Arterial rings were prepared according to Semeraro et al., Naunyn. Schmied. Arch. Pharmacol., 1990, 342 539. […] The tested compounds were cumulatively administered. Dopamine and dopexamine were used as reference substances.

The target of a further data set is T2, D2 receptor (Rattus norvegicus, UniProt P61169).
T2 construct: from tissue; host or cells: rat brain striatum membranes
The experiment in a line: biochemical. The data set is classed as binding. Conditions: rat striated membranes; [3H]-domperidone 0.3 nM; BSA 0.01%; 37°C for 30 minutes; read-out: Affinity [K1 (nM)] D2 [^3H]-domperidone. On the procedure:
The tissue were homogenized in 50 mM Tris/HCl buffer at pH 7.4 (1:100 w/v).
The homogenate was centrifuged and the pellet resuspended, recentrifuged and resuspended again in 50 mM Tris/HCl buffer at pH 7.4 containing 120 mM NaCl, 5mM KCl, 2 mM CaCl2 and 1 mM MgCl2.
Furthermore, bovine serum albumine (BSA) (0.01%) was added.
The mixture was incubated at 37°C for 30 minutes for each concentration of tested compounds.

A further data set concerns D2-like (REA). Nature of the data set: D2-like activity in the Rabbit Ear Artery (REA) test, isolated arterial rings. The arrangement: species or system Male New Zealand rabbits. As to conditions: agonist activity; electrically stimulated ear artery rings (10 Hz, 1 msec, 40-80 mA); compounds cumulatively administered. On the procedure: Arterial rings were prepared according to the method described by […] al., Science, 1978, 443 199, modified as follows. Male New Zealand rabbits weighing 2.5-3 Kg were sacrificed by intravenous injection of an excess of pentobarbital sodium and exsanguinated. The two ears were taken away and the central ear artery was dissected into 3 mm long rings. These preparations were set up in a 25 ml organ bath containing Krebs solution (mM/l): NaCl 118, KCl 4.7, CaCl2 2.5, MgSO4 1.2, NaHCO3 25, KH2PO4 1.2, glucose 11.1, equilibrated with 95% O2-5% CO2 and maintained at 35±1°C. Krebs solution was medicated with EDTA (10 μM) to prevent cathecolamine oxydation, desipramine (0.1 μM) and corticosterone (30 μM), to block neuronal and extraneuronal cathecolamine uptake. The preparations were electrically stimulated (10 Hz, 1 msec, 40-80 mA, 500 msec duration) at 5 minutes intervals. The tested compounds were cumulatively administered. Dopamine and dopexamine were used as reference substances.

For data set [1] the following is noted: Fitton and Benfield, Drugs, 39(2), 308-330 (1990); cited from earlier work.

T1 sequence (P18901 whole entry): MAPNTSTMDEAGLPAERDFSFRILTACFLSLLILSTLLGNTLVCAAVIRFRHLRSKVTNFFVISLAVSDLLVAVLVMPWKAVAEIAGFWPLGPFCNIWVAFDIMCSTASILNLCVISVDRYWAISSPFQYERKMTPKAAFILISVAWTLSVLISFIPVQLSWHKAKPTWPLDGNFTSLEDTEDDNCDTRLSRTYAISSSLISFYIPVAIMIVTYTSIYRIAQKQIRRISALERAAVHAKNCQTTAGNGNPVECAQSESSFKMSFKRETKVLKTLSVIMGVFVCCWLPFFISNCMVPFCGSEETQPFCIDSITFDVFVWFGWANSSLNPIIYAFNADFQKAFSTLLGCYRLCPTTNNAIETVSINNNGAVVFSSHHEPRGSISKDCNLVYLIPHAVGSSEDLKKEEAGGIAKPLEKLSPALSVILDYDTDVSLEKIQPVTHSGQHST
T2 sequence (P61169 whole entry): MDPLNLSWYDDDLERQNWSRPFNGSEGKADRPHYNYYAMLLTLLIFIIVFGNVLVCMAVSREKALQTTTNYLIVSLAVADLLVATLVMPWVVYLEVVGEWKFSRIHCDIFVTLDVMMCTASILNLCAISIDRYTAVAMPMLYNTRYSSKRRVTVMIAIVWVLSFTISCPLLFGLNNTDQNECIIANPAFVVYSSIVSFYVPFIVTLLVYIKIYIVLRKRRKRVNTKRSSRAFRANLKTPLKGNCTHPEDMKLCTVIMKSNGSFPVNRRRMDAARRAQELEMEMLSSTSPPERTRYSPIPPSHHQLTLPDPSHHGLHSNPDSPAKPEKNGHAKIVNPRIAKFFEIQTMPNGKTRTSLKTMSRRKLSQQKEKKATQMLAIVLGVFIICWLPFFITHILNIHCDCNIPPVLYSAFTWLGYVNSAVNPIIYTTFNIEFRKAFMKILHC
Protocol for D1 receptor: The conditions of standard incubation (volume 1000 µl) for the test in which [^3H]-SCH23390 was used were the following: 50 mM Tris/HCl buffer (pH.7.4), 0.2 nM [^3H]-SCH23390, a membrane preparation of 130-140 µg proteins/ml.
The mixture was incubated with different concentrations of the tested compounds at 37°C for 20 minutes, filtered under vacuum through Whatman GF/C filters and then washed 4 times with 5 ml of 50 mM Tris/HCl buffer (pH 7.4) cooled with ice.

With `Br.Br.CCCN(CCCCCCNCCc1ccc(O)c(O)c1)[C@@H]1CCc2cc(O)c(O)cc2C1` [Compound 13, (R)-N-propyl-N-[6-[2-(3,4-dihydroxyphenyl)ethylamino]hexyl]-6,7-dihydroxy-1,2,3,4-tetrahydro-2-naphthylamine dihydrobromide], the Ki at D1 receptor turned out to be 43 nM; on D2 receptor, 0.8 nM. The “D1-like (RSA) pD2” value in the data set with D1-like (RSA) was determined as 7.7. Further, the “D2-like (REA) pD2” value with D2-like (REA) amounted to 9.4.
Regarding `CCCN(CCCCCCN(C)CCc1ccccc1)[C@H]1CCc2c(ccc(O)c2O)C1` [Compound 5, (S)-N-methyl-N-(2-phenylethyl)-N'-propyl-N'-[2-(5,6-dihydroxy-1,2,3,4-tetrahydro)naphthyl]-1.6-hexandiamine dihydrobromide], the Ki at D1 receptor was found to be 69 nM; on D2 receptor, 0.3 nM.
In the case of `Br.Br.CCCN(CCCCCCNCCc1cc(O)cc(O)c1)[C@H]1CCc2c(ccc(O)c2O)C1` [Compound 4, (S)-N-propyl-N-[6-[2-(3,5-dihydroxyphenyl)ethylamino)hexyl]-5,6-dihydroxy-1,2,3,4-tetrahydro-2-naphthylamine dihydrobromide], the Ki at D1 receptor worked out at 33 nM; at D2 receptor, 0.1 nM. For the same compound, in the data set with D1-like (RSA), the “D1-like (RSA) pD2” value is listed as 8.5. Also, in the data set with D2-like (REA), the “D2-like (REA) pD2” value is given as 10.6.
With `Br.Br.CCCN(CCCCCCNCCc1ccccc1O)[C@H]1CCc2c(ccc(O)c2O)C1` [Compound 15, (S)-N-propyl-N-[6-[2-(2-hydroxyphenyl)ethylamino]hexyl]-5,6-dihydroxy-1,2,3,4-tetrahydro-2-naphthylamine dihydrobromide], the Ki on D1 receptor is 33 nM; on D2 receptor, 0.4 nM. Moreover, the “D1-like (RSA) pD2” value with D1-like (RSA) turned out to be 7.3. In addition, the “D2-like (REA) pD2” value in the data set with D2-like (REA) was 9.2.
With `CCCN(CCCCCCN(CCC)[C@H]1CCc2c(ccc(O)c2O)C1)CCc1ccc(O)cc1` [Compound 18, (S)-N-propyl-N-[2-(4-hydroxyphenyl)ethyl]-N'-propyl-N'-[2-(5,6-dihydroxy-1,2,3,4-tetrahydro)naphthyl]-1,6-hexandiamine dihydrobromide], the results for the Ki at D1 receptor and at D2 receptor were 107 nM and 0.9 nM, respectively. Moreover, in the data set on D1-like (RSA), the “D1-like (RSA) pD2” value is on record as 6.6. Also, the “D2-like (REA) pD2” value with D2-like (REA) was 9.2.
Turning to `CCCN(CCCCNCCc1ccccc1)[C@H]1CCc2c(ccc(O)c2O)C1` [Compound 8, (S)-N-propyl-N-[4-(2-phenyletylamino)butyl]-5,6-dihydroxy-1,2,3,4--tetrahydro-2-naphthylamine dihydrobromide], the figures for the Ki on D1 receptor and on D2 receptor were 361 nM and 1 nM, respectively. In the data set on D1-like (RSA), the “D1-like (RSA) pD2” value was 6.4. Besides, the “D2-like (REA) pD2” value in the data set with D2-like (REA) was found to be 8.2.
In the case of `CCCN(CCCCCCCCNCCc1ccc(O)c(O)c1)[C@H]1CCc2c(ccc(O)c2O)C1` [Compound 7, dihydrobromide], the Ki was 27 nM at D1 receptor and 0.5 nM at D2 receptor.
As to `Br.Br.CCCN(CCCCCCNCCc1ccc(O)c(O)c1)[C@H]1CCc2c(O)cccc2C1` [Compound 6, (S)-N-propyl-N-[6-[2-(3,4-dihydroxyphenyl)ethylamino]hexyl]-5-hydroxy-1,2,3,4-tetrahydro-2-naphthylamine dihydrobromide], the “D1-like (RSA) pD2” value in the data set on D1-like (RSA) is recorded as 7.5. Moreover, the “D2-like (REA) pD2” value with D2-like (REA) is recorded as 9.6.
Consider `Br.Br.CCCN(CCCCCCNCCc1ccc(O)cc1)[C@H]1CCc2c(ccc(O)c2O)C1` [Compound 2, (S)-N-propyl-N-[6-[2-(4-hydroxyphenyl)ethylamino)hexyl]-5,6-dihydroxy-1,2,3,4-tetrahydro-2-naphthylamine dihydrobromide], for which the Ki at D1 receptor amounted to 10 nM; on D2 receptor it was 0.2 nM. In addition, the “D1-like (RSA) pD2” value in the data set on D1-like (RSA) is recorded as 8.4. Further, the “D2-like (REA) pD2” value in the data set with D2-like (REA) worked out at 8.8.
As for `Br.Br.CCCN(CCCCCCNCCc1ccc(O)c(O)c1)[C@H]1CCc2c(ccc(O)c2O)C1` [Compound 3, (S)-N-propyl-N-[6-[2-(3,4-dihydroxyphenyl)ethylamino)hexyl]-5,6-dihydroxy-1,2,3,4-tetrahydro-2-naphthylamine dihydrobromide], the Ki was found to be 21 nM on D1 receptor and 0.5 nM on D2 receptor. The “D1-like (RSA) pD2” value with D1-like (RSA) was 8.1. The “D2-like (REA) pD2” value in the data set with D2-like (REA) was 9.5.
Regarding `Br.Br.CCCN(CCCCCCNCCc1ccc(O)cc1)[C@H]1CCc2c(O)cccc2C1` [Compound 9, (S)-N-propyl-N-[6-[2-(4-hydroxyphenyl)ethylamino]hexyl]-5-hydroxy-1,2,3,4-tetrahydro-2-naphthylamine dihydrobromide], the “D2-like (REA) pD2” value in the data set on D2-like (REA) was 9.1.
As for `Br.Br.CCCN(CCCCCCNCCc1cccc(O)c1)[C@H]1CCc2c(ccc(O)c2O)C1` [Compound 1, (S)-N-propyl-N-[6-[2-(3-hydroxyphenyl)ethylamino)-hexyl]-5,6-dihydroxy-1,2,3,4-tetrahydro-2-naphthylamine dihydrobromide], the Ki at D1 receptor came out at 21 nM; on D2 receptor it was 0.5 nM. For the same compound, in the data set on D1-like (RSA), the “D1-like (RSA) pD2” value is on record as 8.1. Further, the “D2-like (REA) pD2” value in the data set on D2-like (REA) is recorded as 8.8.
As for `NCCc1ccc(O)c(O)c1` [Dopamine, reference compound], in the data set with D1-like (RSA), the “D1-like (RSA) pD2” value worked out at 6.4. Besides, in data set [1], the “absorption when administered by oral route” value is “not absorbed”. In addition, in the data set on D2-like (REA), the “D2-like (REA) pD2” value is 7.8.
On to `Oc1ccc(CCNCCCCCCNCCc2ccccc2)cc1O` [Dopexamine, dopexamine, reference compound], for which, in the data set on D1-like (RSA), the “D1-like (RSA) pD2” value turned out to be 6.1. Moreover, the Ki at D2 receptor amounted to 1220 nM. For the same compound, in data set [1], the “absorption when administered by oral route” value is “not absorbed”. Further, in the data set on D2-like (REA), the “D2-like (REA) pD2” value was 6.3.
For `CCCN(CCCCCCNCCCc1ccccc1)[C@H]1CCc2c(ccc(O)c2O)C1` [Compound 12, (S)-N-propyl-N-[6-(3-phenylpropylamino)hexyl]-5,6-dihydroxy-1,2,3,4--tetrahydro-2-naphthylamine dihydrochloride], the “D1-like (RSA) pD2” value with D1-like (RSA) worked out at 7.1. Further, in the data set on D2-like (REA), the “D2-like (REA) pD2” value was 8.6.
Consider `CCCN(CCCCCCNCCc1ccccc1)[C@H]1CCc2cc(O)c(O)cc2C1` [Compound 11, (S)-N-propyl-N-[6-(2-phenylethylamino)hexyl]-6,7-dihydroxy-1,2,3,4--tetrahydro-2-naphthylamine dihydrochloride], for which the Ki at D1 receptor was 89 nM; at D2 receptor, 0.5 nM. Moreover, the “D1-like (RSA) pD2” value with D1-like (RSA) worked out at 6.2. For the same compound, the “D2-like (REA) pD2” value with D2-like (REA) is 8.4.
For the compound `CCCN(CCCCCCNCCc1ccccc1)[C@H]1CCc2c(ccc(O)c2O)C1.Cl.Cl` [Compound 10, (S)-N-propyl-N-[6-(2-phenylethylamino)hexyl]-5,6-dihydroxy-1,2,3,4-tetrahydro-2-naphthylamine dihydrochloride], the Ki at D1 receptor was 40 nM; on D2 receptor, 0.1 nM. Further, in the data set with D1-like (RSA), the “D1-like (RSA) pD2” value turned out to be 7.2. Besides, the “D2-like (REA) pD2” value in the data set with D2-like (REA) was 9.2.
Regarding `Br.Br.CCCN(CCCCCCNCCc1ccc(O)cc1)[C@@H]1CCc2cc(O)c(O)cc2C1` [Compound 14, (R)-N-propyl-N-[6-[2-(4-hydroxyphenyl)ethylamino]hexyl]-6,7-dihydroxy-1,2,3,4-tetrahydro-2-naphthylamine dihydrobromide], the “D1-like (RSA) pD2” value in the data set on D1-like (RSA) was 7.9. Also, in the data set with D2-like (REA), the “D2-like (REA) pD2” value stood at 9.9.
